{
  "source": "paper PMC7434893",
  "about": "(British Journal of Cancer, 2020)",
  "key": {"RL95-2": {"system": "RL95-2", "test": "8-day growth inhibition", "format": "cell-based", "conditions": "Endometrial, RL95-2, 8-day assay"}, "MDA-MB-453": {"system": "MDA-MB-453", "test": "8-day growth inhibition", "format": "cell-based", "conditions": "Breast, MDA-MB-453, 8-day assay"}, "[1]": {"test": "2-compartment pharmacokinetic model", "format": "in vivo, human", "conditions": "model estimate", "excerpt": "In the second stage, the final parameters from the pharmacokinetic model were fixed for sequential PK/PD modelling."}, "HEC-151": {"system": "HEC-151", "test": "8-day growth inhibition", "format": "cell-based", "conditions": "Endometrial, HEC-151, 8-day assay"}, "NCI-H82": {"system": "NCI-H82", "test": "8-day growth inhibition", "format": "cell-based", "conditions": "SCLC, NCI-H82, 8-day assay"}, "HEC-265": {"system": "HEC-265", "test": "8-day growth inhibition", "format": "cell-based", "conditions": "Endometrial, HEC-265, 8-day assay"}, "Toledo": {"system": "Toledo", "test": "8-day growth inhibition", "format": "cell-based", "conditions": "DLBCL (GC), 8-day assay"}, "MCF-7": {"system": "MCF-7", "test": "8-day growth inhibition", "format": "cell-based", "conditions": "Breast, MCF-7, 8-day assay"}, "PARP [2]": {"system": "PARP", "conditions": "100 mg/kg, preclinical studies; cited from earlier work"}, "NCI-H929": {"system": "NCI-H929", "test": "8-day growth inhibition", "format": "cell-based", "conditions": "Myeloma, NCI-H929, 8-day assay"}, "SNG-M": {"system": "SNG-M", "test": "8-day growth inhibition", "format": "cell-based", "conditions": "Endometrial, 8-day assay"}, "U937": {"system": "U937", "test": "8-day growth inhibition", "format": "cell-based", "conditions": "Histiocytic lymphoma - monocytic, U937, 8-day assay"}, "MDA-MB-436": {"system": "MDA-MB-436", "test": "8-day growth inhibition", "format": "cell-based", "conditions": "Breast, MDA-MB-436, 8-day assay"}, "T47D": {"system": "T47D", "test": "8-day growth inhibition", "format": "cell-based", "conditions": "Breast, 8-day assay"}, "SR": {"system": "SR", "test": "8-day growth inhibition", "format": "cell-based", "conditions": "B cell lymphoma, 8-day assay"}, "NCI-H1694": {"system": "NCI-H1694", "test": "8-day growth inhibition", "format": "cell-based", "conditions": "SCLC, NCI-H1694, 8-day assay"}, "MDA-MB-468": {"system": "MDA-MB-468", "test": "8-day growth inhibition", "format": "cell-based", "conditions": "Breast, MDA-MB-468, 8-day assay"}, "HEC-50B": {"system": "HEC-50B", "test": "8-day growth inhibition", "format": "cell-based", "conditions": "Endometrial, 8-day assay"}, "RL": {"system": "RL", "test": "8-day growth inhibition", "format": "cell-based", "conditions": "NHL B cell lymphoma, 8-day assay"}, "PARP1": {"system": "PARP1", "conditions": "read-out: IC50, enzymatic activity of PARP1; cited from earlier work"}, "sIL-2Rα/CD25": {"system": "sIL-2Rα/CD25", "test": "Serum biomarker analysis, sIL-2Rα", "format": "in vivo, human", "conditions": "from 48 h onwards, all dose groups", "description": "(§1) Two pre-dose, multiple post-dose and off-treatment time points were included. Serum samples were tested for concentrations of soluble vascular endothelial growth factor receptor (VEGFR)2, VEGFR3 and soluble interleukin-2 receptor α (sIL-2Rα/CD25), using the bead-based Human Soluble Cytokine Receptor Panel assay kit. The two baseline samples (days −3 and −2 prior to dosing) were averaged, and the mean was used to calculate percent change at each of the post-dosing time points."}, "Jeko-1": {"system": "Jeko-1", "test": "8-day growth inhibition", "format": "cell-based", "conditions": "MCL, Jeko-1, 8-day assay"}, "sVEGFR3": {"system": "sVEGFR3", "test": "Serum biomarker analysis, sVEGFR3", "format": "in vivo, human", "conditions": "data not shown", "description": "as §1"}, "HEC-251": {"system": "HEC-251", "test": "8-day growth inhibition", "format": "cell-based", "conditions": "Endometrial, HEC-251, 8-day assay"}, "HCC70": {"system": "HCC70", "test": "8-day growth inhibition", "format": "cell-based", "conditions": "Breast, HCC70, 8-day assay"}, "NCI-H524": {"system": "NCI-H524", "test": "8-day growth inhibition", "format": "cell-based", "conditions": "SCLC, NCI-H524, 8-day assay"}, "NCI-H146": {"system": "NCI-H146", "test": "8-day growth inhibition", "format": "cell-based", "conditions": "SCLC, NCI-H146, 8-day assay"}, "NCEB-1": {"system": "NCEB-1", "test": "8-day growth inhibition", "format": "cell-based", "conditions": "MCL, NCEB-1, 8-day assay"}, "MDA-MB-157": {"system": "MDA-MB-157", "test": "8-day growth inhibition", "format": "cell-based", "conditions": "Breast, MDA-MB-157, 8-day assay"}, "MC/CAR": {"system": "MC/CAR", "test": "8-day growth inhibition", "format": "cell-based", "conditions": "Myeloma, 8-day assay"}, "KLE": {"system": "KLE", "test": "8-day growth inhibition", "format": "cell-based", "conditions": "Endometrial, 8-day assay"}, "BT-20": {"system": "BT-20", "test": "8-day growth inhibition", "format": "cell-based", "conditions": "Breast, BT-20, 8-day assay"}, "HEC-88nu": {"system": "HEC-88nu", "test": "8-day growth inhibition", "format": "cell-based", "conditions": "Endometrial, 8-day assay"}, "HEC-6": {"system": "HEC-6", "test": "8-day growth inhibition", "format": "cell-based", "conditions": "Endometrial, HEC-6, 8-day assay"}, "MFE-296": {"system": "MFE-296", "test": "8-day growth inhibition", "format": "cell-based", "conditions": "Endometrial, MFE-296, 8-day assay"}, "HCC1806": {"system": "HCC1806", "test": "8-day growth inhibition", "format": "cell-based", "conditions": "Breast, HCC1806, 8-day assay"}, "HCT-116": {"system": "HCT-116", "test": "8-day growth inhibition", "format": "cell-based", "conditions": "Colon, HCT-116, 8-day assay"}, "PARP [3]": {"system": "PARP", "test": "PARP inhibition by PAR levels in PBMCs (ELISA)", "format": "in vivo, human", "description": "Inhibition of PARP activity was measured by quantifying PAR in PBMCs using an enzyme-linked immunosorbent assay (HT PARP in vivo Pharmacodynamic Assay II kit). PAR levels in PBMCs and the percentage change from baseline were summarised by dose and nominal sampling time point."}, "HEC-1B": {"system": "HEC-1B", "test": "8-day growth inhibition", "format": "cell-based", "conditions": "Endometrial, 8-day assay"}, "M14": {"system": "M14", "test": "8-day growth inhibition", "format": "cell-based", "conditions": "Melanoma, M14, 8-day assay"}},
  "note": "pIC50: −log10 of the molar value.",
  "data": [
    {"smiles": "O=c1[nH]nc2c3c(cccc13)N=C(CN1Cc3ccccc3C1)N2", "note": "[E7449]", "values": [
      {"measurement": "pIC50", "setting": "RL95-2", "result": 5.67},
      {"measurement": "pIC50", "setting": "MDA-MB-453", "result": 5.21},
      {"measurement": "k12", "setting": "[1]; central to peripheral compartment", "result": 0.21, "unit": "h⁻¹"},
      {"measurement": "V/F, apparent volume of distribution for the central compartment", "setting": "[1]; all doses fitted", "result": 149.7, "unit": "L"},
      {"measurement": "ka, absorption rate constant", "setting": "[1]; all doses fitted", "result": 0.82, "unit": "h⁻¹"},
      {"measurement": "ke, first-order elimination rate constant", "setting": "[1]; all doses fitted", "result": 0.51, "unit": "h⁻¹"},
      {"measurement": "k21", "setting": "[1]; peripheral to central compartment", "result": 0.27, "unit": "h⁻¹"},
      {"measurement": "pIC50", "setting": "HEC-151", "result": 5.84},
      {"measurement": "pIC50", "setting": "NCI-H82", "result": 6.33},
      {"measurement": "pIC50", "setting": "HEC-265", "result": 5.62},
      {"measurement": "pIC50", "setting": "Toledo", "result": 5.80},
      {"measurement": "pIC50", "setting": "MCF-7", "result": 5.72},
      {"measurement": "PARP inhibition in tumours", "setting": "PARP [2]", "result": "sustained PARP inhibition"},
      {"measurement": "pIC50", "setting": "NCI-H929", "result": 5.28},
      {"measurement": "pIC50", "setting": "SNG-M", "result": 5.87},
      {"measurement": "pIC50", "setting": "U937", "result": 5.57},
      {"measurement": "pIC50", "setting": "MDA-MB-436", "result": 6.72},
      {"measurement": "pIC50", "setting": "T47D", "result": 5.11},
      {"measurement": "pIC50", "setting": "SR", "result": 6.59},
      {"measurement": "pIC50", "setting": "NCI-H1694", "result": 5.61},
      {"measurement": "pIC50", "setting": "MDA-MB-468", "result": 5.60},
      {"measurement": "pIC50", "setting": "HEC-50B", "result": 5.46},
      {"measurement": "pIC50", "setting": "RL", "result": 5.60},
      {"measurement": "pIC50", "setting": "PARP1", "result": 9.00},
      {"measurement": "sIL-2Rα change above baseline", "setting": "sIL-2Rα/CD25", "result": "up to 150%"},
      {"measurement": "pIC50", "setting": "Jeko-1", "result": 5.72},
      {"measurement": "Change in serum concentration of sVEGFR3 from baseline", "setting": "sVEGFR3", "result": "No significant changes"},
      {"measurement": "pIC50", "setting": "HEC-251", "result": 5.90},
      {"measurement": "pIC50", "setting": "HCC70", "result": 5.03},
      {"measurement": "pIC50", "setting": "NCI-H524", "result": 6.16},
      {"measurement": "pIC50", "setting": "NCI-H146", "result": 6.03},
      {"measurement": "pIC50", "setting": "NCEB-1", "result": 5.28},
      {"measurement": "pIC50", "setting": "MDA-MB-157", "result": 5.17},
      {"measurement": "pIC50", "setting": "MC/CAR", "result": 5.64},
      {"measurement": "pIC50", "setting": "KLE", "result": 5.59},
      {"measurement": "pIC50", "setting": "BT-20", "result": 5.10},
      {"measurement": "pIC50", "setting": "HEC-88nu", "result": 5.94},
      {"measurement": "pIC50", "setting": "HEC-6", "result": 5.73},
      {"measurement": "pIC50", "setting": "MFE-296", "result": 6.17},
      {"measurement": "pIC50", "setting": "HCC1806", "result": 5.74},
      {"measurement": "pIC50", "setting": "HCT-116", "result": 5.77},
      {"measurement": "Time of maximal decrease in PAR levels after administration", "setting": "PARP [3]; 600 mg, fasted cohort", "result": "2 to 4", "unit": "h"},
      {"measurement": "Time of maximal decrease in PAR levels post treatment", "setting": "PARP [3]; 600 mg, fed cohort", "result": "4 to 8", "unit": "h"},
      {"measurement": "Decrease in PAR levels", "setting": "PARP [3]; 24-h post-dose time points (cycle 1, days 1, 7, 8 and 16)", "result": "≥ 70", "unit": "%"},
      {"measurement": "Population mean PARP inhibition", "setting": "PARP [3]; MTD 600 mg once daily, steady state, PAR in PBMCs", "result": "approximately 90%"},
      {"measurement": "Inhibition in PAR levels from baseline", "setting": "PARP [3]; food-effect cohorts, 600 mg", "result": "up to 90%"},
      {"measurement": "pIC50", "setting": "HEC-1B", "result": 5.14},
      {"measurement": "pIC50", "setting": "M14", "result": 5.17}
    ]}
  ]
}
